From patent publication US11292770B2, “Pyridazinone herbicides” (FMC Corporation, priority 2017, dated 2022)

What was measured:
Type in all cases: in vivo
[1] = tested on: kochia (Kochia scoparia); experiment: Test A preemergence, kochia; conditions: 0 to 100 scale
From the text: (§1) Seeds of plant species selected from barnyardgrass (Echinochloa crus-galli), kochia (Kochia scoparia), ragweed (common ragweed, Ambrosia elation), ryegrass, Italian (Italian ryegrass, Lolium multiflorum), foxtail, green (green foxtail, Setaria viridis), and pigweed (Amaranthus retroflexus) were planted into a blend of loam soil and sand and treated preemergence with a directed soil spray using test chemicals formulated in a non-phytotoxic solvent mixture which included a surfactant. At the same time, plants selected from these weed species and also wheat (Triticum aestivum), corn (Zea mays), blackgrass (Alopecurus myosuroides), and galium (catchweed bedstraw, Galium aparine) were planted in pots containing the same blend of loam soil and sand and treated with postemergence applications of test chemicals formulated in the same manner Plants ranged in height from 2 to 10 cm and were in the one- to two-leaf stage for the postemergence treatment. Treated plants and untreated controls were maintained in a greenhouse for approximately 10 d, after which time all treated plants were compared to untreated controls and visually evaluated for injury. Plant response ratings, summarized in Table A, are based on a 0 to 100 scale where 0 is no effect and 100 is complete control. A dash (—) response means no test result.

[2] = tested on: sedge, umbrella (small-flower umbrella sedge, Cyperus difformis); experiment: Test B flooded paddy test, sedge, umbrella; conditions: Flood, 250 g ai/ha; scale of 0 to 100
Protocol: (§2) Plant species in the flooded paddy test selected from rice (Oryza sativa), sedge, umbrella (small-flower umbrella sedge, Cyperus difformis), ducksalad (Heteranthera limosa), and barnyardgrass (Echinochloa crus-galli) were grown to the 2-leaf stage for testing. At the time of treatment, test pots were flooded to 3 cm above the soil surface, treated by application of test compounds directly to the paddy water, and then maintained at that water depth for the duration of the test. Treated plants and controls were maintained in a greenhouse for 13 to 15 d, after which time all species were compared to controls and visually evaluated. Plant response ratings, summarized in Table B, are based on a scale of 0 to 100 where 0 is no effect and 100 is complete control. A dash (—) response means no test result.

[3] = tested on: blackgrass (Alopecurus myosuroides); experiment: Test A postemergence, blackgrass; conditions: 0 to 100 scale
From the text: as §1

[4] = tested on: Foxtail, Giant; experiment: Test A postemergence, foxtail, giant; conditions: 0 to 100 scale
[5] = tested on: barnyardgrass (Echinochloa crus-galli); experiment: Test A preemergence, barnyardgrass; conditions: 0 to 100 scale
From the text: as §1

[6] = tested on: kochia (Kochia scoparia); experiment: Test A postemergence, kochia; conditions: 0 to 100 scale
From the text: as §1

[7] = tested on: ducksalad (Heteranthera limosa); experiment: Test B flooded paddy test, ducksalad; conditions: Flood, 250 g ai/ha; scale of 0 to 100
Protocol: as §2

[8] = tested on: ryegrass, Italian (Italian ryegrass, Lolium multiflorum); experiment: Test A postemergence, ryegrass, Italian; conditions: 0 to 100 scale
From the text: as §1

[9] = tested on: corn (Zea mays); experiment: Test A postemergence, corn; conditions: 0 to 100 scale
From the text: as §1

[10] = tested on: ragweed (common ragweed, Ambrosia elation); experiment: Test A preemergence, ragweed; conditions: 0 to 100 scale
From the text: as §1

[11] = tested on: barnyardgrass (Echinochloa crus-galli); experiment: Test B flooded paddy test, barnyardgrass; conditions: Flood, 250 g ai/ha; scale of 0 to 100, 0 no effect, 100 complete control
Protocol: as §2

[12] = tested on: Foxtail, Giant; experiment: Test A preemergence, foxtail, giant; conditions: 0 to 100 scale
[13] = tested on: barnyardgrass (Echinochloa crus-galli); experiment: Test A postemergence, barnyardgrass; conditions: 0 to 100 scale
From the text: as §1

[14] = tested on: ragweed (common ragweed, Ambrosia elation); experiment: Test A postemergence, ragweed; conditions: 0 to 100 scale
From the text: as §1

[15] = tested on: pigweed (Amaranthus retroflexus); experiment: Test A preemergence, pigweed; conditions: 0 to 100 scale
From the text: as §1

[16] = tested on: ryegrass, Italian (Italian ryegrass, Lolium multiflorum); experiment: Test A preemergence, ryegrass, Italian; conditions: 0 to 100 scale
From the text: as §1

[17] = tested on: galium (catchweed bedstraw, Galium aparine); experiment: Test A postemergence, galium; conditions: 0 to 100 scale
From the text: as §1

[18] = tested on: pigweed (Amaranthus retroflexus); experiment: Test A postemergence, pigweed; conditions: 0 to 100 scale
From the text: as §1

[19] = tested on: rice (Oryza sativa); experiment: Test B flooded paddy test, rice; conditions: Flood, 250 g ai/ha; scale of 0 to 100
Protocol: as §2

[20] = tested on: wheat (Triticum aestivum); experiment: Test A postemergence, wheat; conditions: 0 to 100 scale
From the text: as §1

[21] = tested on: foxtail, green (green foxtail, Setaria viridis); experiment: Test A postemergence, foxtail, green; conditions: 0 to 100 scale
From the text: as §1

[22] = tested on: foxtail, green (green foxtail, Setaria viridis); experiment: Test A preemergence, foxtail, green; conditions: 0 to 100 scale
From the text: as §1

[23] = 125 g ai/ha, 0 no effect, 100 complete control

SMILES	Plant response rating, Kochia ([1]; 31 g ai/ha)	Plant response rating, Kochia ([1]; 125 g ai/ha)	Plant response rating, Sedge, Umbrella [2]	Plant response rating, Blackgrass ([3]; 31 g ai/ha)	Plant response rating, Blackgrass ([3]; 125 g ai/ha)	Plant response rating, Barnyardgrass ([5]; 31 g ai/ha)	Plant response rating, Barnyardgrass ([5]; 125 g ai/ha)	Plant response rating, Kochia ([6]; 31 g ai/ha)	Plant response rating, Kochia ([6]; 125 g ai/ha)	Plant response rating, Ducksalad [7]	Plant response rating, Ryegrass, Italian ([8]; 31 g ai/ha)	Plant response rating, Ryegrass, Italian ([8]; 125 g ai/ha)	Plant response rating, Corn ([9]; 31 g ai/ha)	Plant response rating, Corn ([9]; 125 g ai/ha)	Plant response rating, Ragweed ([10]; 31 g ai/ha)	Plant response rating, Ragweed ([10]; 125 g ai/ha)	Plant response rating, Barnyardgrass [11]	Plant response rating, Barnyardgrass ([13]; 31 g ai/ha)	Plant response rating, Barnyardgrass [13, 23]	Plant response rating, Ragweed ([14]; 31 g ai/ha)	also measured
Cc1nn(C)c(=O)c(-c2c3ccccc3cc3ccccc23)c1O [Compound 8]	0	0	90	0	30	0	10	0	10	90	90	100	10	10	40	90	15	10	50	90	Plant response rating, Foxtail, Giant ([4]; 31 g ai/ha): 10; Plant response rating, Foxtail, Giant ([4]; 125 g ai/ha): 60; Plant response rating, Foxtail, Giant ([12]; 31 g ai/ha): 0; Plant response rating, Foxtail, Giant ([12]; 125 g ai/ha): 10; Plant response rating, Ragweed ([14]; 125 g ai/ha): 90; Plant response rating, Pigweed ([15]; 31 g ai/ha): 100; Plant response rating, Pigweed ([15]; 125 g ai/ha): 100; Plant response rating, Ryegrass, Italian ([16]; 31 g ai/ha): 10; Plant response rating, Ryegrass, Italian ([16]; 125 g ai/ha): 50; Plant response rating, Galium ([17]; 31 g ai/ha): 80; Plant response rating, Galium ([17]; 125 g ai/ha): 90; Plant response rating, Pigweed ([18]; 31 g ai/ha): 90; Plant response rating, Pigweed ([18]; 125 g ai/ha): 100; Plant response rating, Rice [19]: 15; Plant response rating, Wheat ([20]; 31 g ai/ha): 0; Plant response rating, Wheat ([20]; 125 g ai/ha): 0
Cn1nc(Cl)c(O)c(-c2c3ccccc3cc3ccccc23)c1=O [Compound 1, 4-(9-anthracenyl)-6-chloro-5-hydroxy-2-methyl-3(2H)-pyridazinone]	0	20	90	0	10	0	0	10	20	85	20	40	0	0	70	100	20	0	20	80	Plant response rating, Foxtail, Green ([21]; 31 g ai/ha): 10; Plant response rating, Foxtail, Green ([21]; 125 g ai/ha): 50; Plant response rating, Foxtail, Green ([22]; 31 g ai/ha): 0; Plant response rating, Foxtail, Green ([22]; 125 g ai/ha): 0; Plant response rating, Ragweed ([14]; 125 g ai/ha): 90; Plant response rating, Pigweed ([15]; 31 g ai/ha): 100; Plant response rating, Pigweed ([15]; 125 g ai/ha): 100; Plant response rating, Ryegrass, Italian ([16]; 31 g ai/ha): 20; Plant response rating, Ryegrass, Italian ([16]; 125 g ai/ha): 30; Plant response rating, Galium ([17]; 31 g ai/ha): 70; Plant response rating, Galium ([17]; 125 g ai/ha): 90; Plant response rating, Pigweed ([18]; 31 g ai/ha): 90; Plant response rating, Pigweed ([18]; 125 g ai/ha): 100; Plant response rating, Rice [19]: 0; Plant response rating, Wheat ([20]; 31 g ai/ha): 0; Plant response rating, Wheat ([20]; 125 g ai/ha): 10
